Test results reported in ChEMBL document CHEMBL1152079, “Synthesis and biological evaluation of novel 2-vinyl carbapenems. Remarkable DHP-1 stability of 1-substituted analogs” (1996).
Values after ≈ are worked out from the molar mass of the structure shown.

What was measured:
Staphylococcus aureus [1] = experiment: Compound was tested for its minimal inhibitory concentration against Staphylococcus aureus 209 JC-1; format: functional
[2] = target: T1, Dipeptidase 1 (Sus scrofa) (UniProt P22412); experiment: Susceptibility relative to imipenem was measured against Swine renal Dehydropeptidase-1
T1 sequence (whole entry): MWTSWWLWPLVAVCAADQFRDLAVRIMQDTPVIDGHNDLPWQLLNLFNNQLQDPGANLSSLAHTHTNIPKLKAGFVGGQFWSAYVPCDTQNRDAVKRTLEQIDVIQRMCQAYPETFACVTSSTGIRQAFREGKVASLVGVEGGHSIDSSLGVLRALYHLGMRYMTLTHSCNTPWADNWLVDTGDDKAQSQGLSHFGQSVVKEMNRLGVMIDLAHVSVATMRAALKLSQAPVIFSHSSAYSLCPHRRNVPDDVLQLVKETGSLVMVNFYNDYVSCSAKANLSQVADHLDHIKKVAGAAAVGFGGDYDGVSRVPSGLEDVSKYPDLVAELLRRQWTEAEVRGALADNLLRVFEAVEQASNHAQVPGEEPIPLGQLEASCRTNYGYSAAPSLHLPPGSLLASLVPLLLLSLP

Mus musculus [3] = experiment: Percent urinary recovery was measured in mice after subcutaneous administration at dose 20 mg/kg.; format: functional, organism-based; set-up: dose 20 mg/kg; settings: Urine
Proteus vulgaris = experiment: Compound was tested for its minimal inhibitory concentration against Proteus vulgaris IAM 1025; format: functional
Staphylococcus aureus [4] = experiment: Compound was tested for its minimal inhibitory concentration against Staphylococcus aureus 3004 (Methicillin resistant S. aureus); format: functional
Pseudomonas aeruginosa = experiment: Compound was tested for its minimal inhibitory concentration against Pseudomonas aeruginosa 26; format: functional
Escherichia coli = experiment: Compound was tested for its minimal inhibitory concentration against Escherichia coli NIHJ JC-2; format: functional
Mus musculus [5] = species on record: Mus musculus; experiment: Susceptibility relative to meropenem was measured against mouse DHP-1.
Cercopithecidae = experiment: Susceptibility relative to meropenem was measured against monkey DHP-1.
[6] = target: Dipeptidase 1 (Homo sapiens) (UniProt P16444); experiment: Susceptibility relative to meropenem was measured against human Dehydropeptidase-1
[7] = tested on: Dipeptidase 1 (Canis lupus familiaris); experiment: Susceptibility relative to meropenem was measured against dog Dehydropeptidase-1
[8] = target: Dipeptidase 1 (Rattus norvegicus) (UniProt P31430); experiment: Susceptibility relative to meropenem was measured against rat Dehydropeptidase-1
Oryctolagus cuniculus = species on record: Oryctolagus cuniculus; experiment: Susceptibility relative to meropenem was measured against rabbit DHP-1.

Dipeptidase 1 (Homo sapiens), sequence (P16444 whole entry, looked up): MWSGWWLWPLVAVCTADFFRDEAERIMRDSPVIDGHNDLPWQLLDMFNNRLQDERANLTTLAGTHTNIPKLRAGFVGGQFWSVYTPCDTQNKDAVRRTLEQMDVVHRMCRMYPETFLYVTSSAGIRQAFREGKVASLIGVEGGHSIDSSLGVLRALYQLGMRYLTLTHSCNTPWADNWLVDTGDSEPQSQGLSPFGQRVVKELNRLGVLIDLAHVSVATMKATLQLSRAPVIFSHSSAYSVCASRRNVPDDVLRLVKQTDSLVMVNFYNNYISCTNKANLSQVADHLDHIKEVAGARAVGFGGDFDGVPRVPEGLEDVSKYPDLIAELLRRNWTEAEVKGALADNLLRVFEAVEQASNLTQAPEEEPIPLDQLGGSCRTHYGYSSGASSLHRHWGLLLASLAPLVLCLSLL
Dipeptidase 1 (Rattus norvegicus), sequence (P31430 whole entry, looked up): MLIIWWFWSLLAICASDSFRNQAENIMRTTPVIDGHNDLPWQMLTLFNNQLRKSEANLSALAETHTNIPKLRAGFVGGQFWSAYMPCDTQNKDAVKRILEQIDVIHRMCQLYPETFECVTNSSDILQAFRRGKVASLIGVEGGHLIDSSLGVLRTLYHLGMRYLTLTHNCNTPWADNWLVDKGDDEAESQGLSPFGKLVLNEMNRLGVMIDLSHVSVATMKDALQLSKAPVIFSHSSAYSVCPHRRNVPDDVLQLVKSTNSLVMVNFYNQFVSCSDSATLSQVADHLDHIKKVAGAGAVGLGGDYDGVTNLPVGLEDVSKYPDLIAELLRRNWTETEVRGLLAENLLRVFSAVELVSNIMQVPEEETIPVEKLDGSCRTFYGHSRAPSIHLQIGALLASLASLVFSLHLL

| SMILES | MIC (Staphylococcus aureus [1]) [µg/mL] | Susceptibility [2] | Recovery (Mus musculus [3]) [%] | MIC (Proteus vulgaris) [µg/mL] | MIC (Staphylococcus aureus [4]) [µg/mL] | MIC (Pseudomonas aeruginosa) [µg/mL] | MIC (Escherichia coli) [µg/mL] | Susceptibility (Mus musculus [5]) | Susceptibility (Cercopithecidae) | Susceptibility [6] | Susceptibility [7] | Susceptibility [8] | Susceptibility (Oryctolagus cuniculus) |
| --- | --- | --- | --- | --- | --- | --- | --- | --- | --- | --- | --- | --- | --- |
| C[C@@H](O)[C@H]1C(=O)N2C(C(=O)O)=C(SCCNC=N)C[C@H]12.O [IMIPENEM] | < 0.025 | 1 | 28.9 | 3.13 | 100 | 0.78 | 0.78 | – | – | – | – | – | – |
| C[C@@H](O)[C@H]1C(=O)N2C(C(=O)O)=C(/C=C/[C@@H]3CCCN3)[C@H](C)[C@H]12 | < 0.025 | 0.043 | 60.7 | 6.25 (≈ 20.4 µM) | 100 (≈ 326 µM) | 3.13 (≈ 10.2 µM) | 0.78 (≈ 2.55 µM) | – | – | – | – | – | – |
| C[C@@H](O)[C@H]1C(=O)N2C(C(=O)O)=C(/C=C/[C@@H]3CCCN3)C[C@H]12 | 0.1 (≈ 0.342 µM) | 0.22 | 20.2 | 1.56 (≈ 5.34 µM) | > 100 | 3.13 (≈ 10.7 µM) | 1.56 (≈ 5.34 µM) | – | – | – | – | – | – |
| C/C(=C\[C@@H]1CCCN1)C1=C(C(=O)O)N2C(=O)[C@H]([C@@H](C)O)[C@H]2C1 | < 0.025 | 0.036 | 67.8 | 1.56 (≈ 5.09 µM) | 50 (≈ 163 µM) | 3.13 (≈ 10.2 µM) | 0.39 (≈ 1.27 µM) | 0.45 | 0.032 | 0.45 | 0.249 | 0.11 | 0.015 |
| C[C@@H](O)[C@H]1C(=O)N2C(C(=O)O)=C(/C(=C/[C@@H]3CCCN3)CN)C[C@H]12 | 0.78 (≈ 2.43 µM) | 0.004 | 52.1 | > 100 | > 100 | > 100 | 100 (≈ 311 µM) | – | – | – | – | – | – |
| CSC/C(=C\[C@@H]1CCCN1)C1=C(C(=O)O)N2C(=O)[C@H]([C@@H](C)O)[C@H]2C1 | 0.1 (≈ 0.284 µM) | < 0.006 | 54.3 | 3.13 (≈ 8.88 µM) | 100 (≈ 284 µM) | 25 (≈ 70.9 µM) | 0.78 (≈ 2.21 µM) | – | – | – | – | – | – |
| COC/C(=C\[C@@H]1CCCN1)C1=C(C(=O)O)N2C(=O)[C@H]([C@@H](C)O)[C@H]2C1 | 0.2 (≈ 0.595 µM) | < 0.008 | 64.4 | 50 (≈ 149 µM) | > 100 | 25 (≈ 74.3 µM) | 0.78 (≈ 2.32 µM) | – | – | – | – | – | – |
